SMILES strings stand for the structures. Marks after values point to notes of the source that are not given here.

For one assay, the system named is TNFα. Kind of assay: LPS-induced TNFα synthesis in RAW 264.7 murine macrophages. It counts as cell-based, mouse. As to conditions: 10 μM; RAW 264.7, LPS. On the procedure:
Subconfluent RAW 264.7 cells were seeded into 24-well plates at 5×10^5 cells per well and allowed to adhere for 1 hr. Cells were then treated either test compound (in 0.025% DMSO) or vehicle alone, and incubated for 1 hr. LPS 50 ng/ml (LPS—Sigma-Aldrich) was then added. After incubation for 16 hrs, culture media was collected and stored at −80° C. TNFα measurement using an ELISA (Becton Dickinson).

Assay [1] in a line: DPPH free radical scavenging. As to conditions: DPPH 0.1 mM, 20 minutes; read-out: Free radical scavenging ability EC50. Here is the method: The antioxidant (free radical trapping) activity of test compounds was assessed using the stable free radical compound 2,2-diphenyl-1-picrylhydrazyl (DPPH). A stock solution of DPPH was prepared at a concentration of 0.1 mM in ethanol and mixed for 10 minutes prior to use. Test compounds at a concentration of 100 μM were reacted with DPPH for 20 minutes, after which time the absorbance at 517 nm was determined and the change in absorbance compared to a reagent blank (DPPH with ethanol alone). A dose response curve was produced for those compounds with free radical scavenging activity (ΔAbs>0.3) at 100 μM. The IC50 value was estimated as the concentration of test compound that caused a 0.6 change in absorbance (with 1.2 absorbance units representing total scavenging of the DPPH radical).

The subject of the next assay is red blood cells. Kind of assay: Peroxyl radical (AAPH)-induced red blood cell lysis. It counts as cell-based. To be noted: 10 μM; AAPH-induced RBC lysis; vehicle 40.0. On the procedure: Freshly collected heparinised venous blood (10 ml, on ice) was aliquotted into 1.8 ml sterile eppendorf tubes and centrifuged for 10 minutes at 2600 rpm at 4° C. Plasma and buffy coat layers were removed (approximately 900 μl) and packed red blood cells (RBC) were then washed by the addition of 900 μl of sterile, ice cold PBS. This washing procedure was repeated twice. Packed RBC were resuspended by the addition of 900 μl of ice-cold, sterile PBS (and termed RBC stock). RBC stocks were stored at 4° C. for a maximum of three days. All working suspensions of RBC were prepared fresh daily by diluting 200 μl of RBC stock into 10 ml of ice-cold, sterile PBS and 50 μl added to each well.
The free radical generator AAPH (1.22 gm) was dissolved in 7.5 ml of PBS to yield a 4× stock at 600 mM and 50 μl aliquots (final concentration of 150 mM) were then added to each well to initiate the lysis assay. Test compounds were examined at […] (in DMSO 0.25%). Appropriate controls were included in each experiment. Peroxyl-induced RBC lysis assays were performed in 96-flat bottom well microtitre plates with a total volume of 200 μl per well. Turbidity of RBC suspensions were monitored using a Tecan microplate reader at 690 nm (37° C.) with gentle vortexing. Assays were performed in quadruplicate and readings were taken every 5 minutes over 5 hours. RBC lysis curves were constructed by plotting absorbance (mean of 4 readings) against time. Time to half-lysis was calculated by taking the highest absorbance reading (no lysis) and the lowest absorbance reading (maximum lysis). The sum of these two readings divided by two gave the absorbance at half-lysis. Simple regression analysis was used to calculate the time at which half-lysis absorbance occurred.

The next assay concerns superoxide. The experiment in a line: Extracellular superoxide production by differentiated HL-60 cells (cytochrome C reduction). It counts as cell-based, human. As to conditions: for extracellular superoxide production, % change compared with vehicle control: HL-60, PMA; for inhibition of superoxide production: Cpd. 16 at 100 μM. Here is the method:
The human promyeloblast cell line HL-60 can be differentiated into neutrophil-like cells, which then produce ROS when activated. HL-60 cells were grown in RPMI-1640 medium containing glutamine and supplemented with FBS 20%. They were differentiated by culturing for 6 days in medium containing DMSO 1.25%, after which they were washed, centrifuged and incubated at 37° C. for 5 minutes with cytochalasin before transfer to PBS containing cytochrome C and test compound. After a 5 minute incubation, phorbol myristate acetate (PMA) was added to activate the HL-60 cells, which were then incubated for a further 10 minutes. The cells were then pelleted by centrifugation, and the change in absorbance due to reduction of cytochrome C in the cell-free supernatant was measured at 550 nm. The increase in absorbance is a direct measure of extracellular superoxide production by the cells, and a reduction in those samples incubated with test compounds would indicate anti-oxidant activity. Samples were examined in duplicate, and the assay done three times.

A further assay deals with HCASMC. Kind of assay: Proliferation of human coronary artery smooth muscle cells. The format is cell-based. To be noted: VSMC, 120 h, five days, MTT. On the procedure: Human coronary smooth muscle cells (HCASMC—Clonetics) supplied at passage 3 and used for up to a further 12 population doublings, were seeded into 96 well plates at a low seeding rate, 2-5×10^3 cells per well and allowed to attach and proliferate to 30-40% confluence for 24-48 hours. Prior to inoculation the medium was changed to fresh growth medium. Test compounds were prepared in growth medium and added to plates so that the final concentrations were a series from 150 μM to 0.6 μM. The cells were incubated for five days, cell number assessed using MTT and an IC50 for each compound calculated.

Assay [2] relates to BALB/c mice (AA-induced ear swelling). The experiment in a line: Murine ear inflammation assay, AA-induced ear swelling. The format is in vivo, mouse. As to conditions: 25 mg/kg i/p; for % Change compared with vehicle / Change in ear thickness (mean ± SD, ×0.01 mm): AA, 1 hr post-AA. On the procedure: (§1) Female BALB/c mice (ARC, WA, Australia), weighing 15-21 g, and maintained on an isoflavone-free diet (Gordon's Specialty Stock Foods, Yanderra, NSW) for at least seven days, were randomised into test groups of five or six. To reduce animal use, mice had ear swelling induced by applying AA (Sigma, Steinheim, Germany) initially, and then by phorbol 12-Myristate 13-acetate (PMA—Sigma, Mo., USA) one week later.
(§2) Test compounds were dissolved in polyethylene glycol (PEG) 400 (Sigma, St. Louis, Mo., USA):phosphate buffered saline 1:1 and injected intraperitoneally (i/p) at a dose of 25 mg/kg either 30 min prior to AA treatment or 1 hr prior to PMA treatment. Mice were anaesthetised using isoflurane (Veterinary Companies of Australia Pty Ltd, NSW, Australia) and baseline thickness of both ears was measured using a spring micrometer (Interapid, Zurich, Switzerland). Each mouse received a total of 20 μL of either AA in ethanol (50 mg/ml) or PMA in acetone (0.2 mg/ml) applied to the inner and outer surfaces of each pinna (i.e. 5 μL per ear surface). Mice were anaesthetised again to remeasure the ears at 1 hr post-AA application or at 5 hr post-PMA application.
(§3) The difference in ear swelling pre- and post-application of inflammogen for each ear was calculated. The difference in mean swelling of each test group compared to the group given vehicle alone was calculated using a two-tailed unpaired t-test (Prism 4, Graphpad Software).

The test system of assay [3] is BALB/c mice (PMA-induced ear swelling). The experiment in a line: Murine ear inflammation assay, PMA-induced ear swelling. To be noted: 25 mg/kg i/p; for % Change compared with vehicle / Change in ear thickness (mean ± SD, ×0.01 mm): PMA, 5 hr post-PMA. The format is in vivo, mouse. On the procedure: as §1, §2, §3

As usually defined, the EC50 is the concentration at which the effect is half-maximal. As a reminder, the IC50 is the midpoint of a concentration-inhibition curve. As for `Cc1c(O)ccc2c1OCC(c1cccc(O)c1)=C2` [Cpd. 14, 3′,7-Dihydroxy-8-methylisoflav-3-ene], the “synthesis of TNFα” value in the assay with TNFα is given as “tended to do so”. Also, in assay [1], the EC50 worked out at 47 µM. Besides, the “Time taken to reach half-lysis” value in the assay on red blood cells is 134.7 min. Also, the “extracellular superoxide production, % change compared with vehicle control” value in the assay on superoxide (10 μM) is given as −20%. In addition, the “extracellular superoxide production, % change compared with vehicle control” value in the assay on superoxide (100 μM) is −20%. Moreover, in the assay with superoxide, the “inhibition of superoxide production” value is on record as “trend towards inhibition”. In the assay on HCASMC, this compound registered an IC50 of 54 µM. In assay [2], the “ear oedema caused by the application of AA” value (from here on “ear oedema caused”) was “significant reduction”; the “% Change compared with vehicle” value is listed as −34%; the “Change in ear thickness (mean ± SD, ×0.01 mm)” value (from here on “Change … (mean ± SD, ×0.01 mm)”) turned out to be 10.7 ± 2.9 ×0.01 mm. In addition, in assay [3], the “% Change compared with vehicle” value is on record as “+7%” and the “Change … (mean ± SD, ×0.01 mm)” value is 27.9 ± 3.8 ×0.01 mm.

On to `COc1cccc(C2=Cc3ccc(O)cc3OC2)c1` [Cpd. 16, 7-Hydroxy-3′-methoxyisoflav-3-ene], for which the “synthesis of TNFα” value with TNFα is on record as “tended to do so”. Besides, the EC50 in assay [1] came out at 45 µM. Besides, the “Time taken to reach half-lysis” value in the assay on red blood cells is 164.3 min. Besides, the “extracellular superoxide production, % change compared with vehicle control” value in the assay on superoxide (10 μM) is given as −22%; with superoxide (100 μM) it was −57* %. The “inhibition of superoxide production” value with superoxide is reported as “significantly inhibited”. This compound showed an IC50 in the assay with HCASMC of 118 µM. In assay [2], the “ear oedema caused” value is reported as “significant reduction”. In addition, the figures for the “% Change compared with vehicle” value in assay [2] and in assay [3] were −29% and −11%, respectively. The “Change … (mean ± SD, ×0.01 mm)” value in assay [2] turned out to be 11.6 ± 2.9 ×0.01 mm; in assay [3] it was 23.3 ± 4.5 ×0.01 mm.

With `COc1ccc(C2=Cc3ccc(O)cc3OC2)cc1OC` [Cpd. 18, 7-Hydroxy-3′,4′-dimethoxyisoflav-3-ene], in the assay with TNFα, the “synthesis of TNFα” value was “inhibited”. In addition, the EC50 in assay [1] is 48 µM. Further, the “Time taken to reach half-lysis” value in the assay with red blood cells came to 107.7 min. Further, in the assay with superoxide (10 μM), the “extracellular superoxide production, % change compared with vehicle control” value was −24%. Moreover, the “extracellular superoxide production, % change compared with vehicle control” value in the assay on superoxide (100 μM) is given as −36* %. In the assay on HCASMC, this compound gave an IC50 of 88 µM. In assay [2], the “ear oedema caused” value was “significant reduction”; the “% Change compared with vehicle” value is reported as −40%; the “Change … (mean ± SD, ×0.01 mm)” value is on record as 8.4 ± 3.7 ×0.01 mm. In addition, in assay [3], the “% Change compared with vehicle” value is given as −1% and the “Change … (mean ± SD, ×0.01 mm)” value was 29.6 ± 2.7 ×0.01 mm.

As to `COc1ccc(C2=Cc3ccc(O)c(C)c3OC2)cc1OC` [Cpd. 19, 7-Hydroxy-3′,4′-dimethoxy-8-methylisoflav-3-ene], the “synthesis of TNFα” value in the assay with TNFα was “inhibited”. The EC50 in assay [1] worked out at 74 µM. For the same compound, the “Time taken to reach half-lysis” value with red blood cells stood at 111.6 min. Moreover, the “extracellular superoxide production, % change compared with vehicle control” value in the assay with superoxide (10 μM) was −11%. Besides, the “extracellular superoxide production, % change compared with vehicle control” value with superoxide (100 μM) came out at 16%. In addition, the “inhibition of superoxide production” value with superoxide is “trend towards inhibition”. The compound also had an IC50 with HCASMC of 63 µM. Moreover, in assay [2], the “ear oedema caused” value was “significant reduction”; the “% Change compared with vehicle” value was −34%; the “Change … (mean ± SD, ×0.01 mm)” value amounted to 9.3 ± 3.9 ×0.01 mm. Besides, in assay [3], the “inflammation caused by the application of PMA” value is “significantly inhibited”; the “% Change compared with vehicle” value is on record as −26%; the “Change … (mean ± SD, ×0.01 mm)” value is listed as 22.1 ± 3.9 ×0.01 mm.

As to `Oc1ccc(C2=Cc3ccc(O)c(Br)c3OC2)cc1` [Cpd. 20, 4′,7-Dihydroxy-8-bromoisoflav-3-ene], in the assay with TNFα, the “synthesis of TNFα” value is “tended to do so”. In assay [1], the EC50 came to 24 µM. Besides, the “Time taken to reach half-lysis” value in the assay with red blood cells amounted to 122.0 min. Also, the “extracellular superoxide production, % change compared with vehicle control” value in the assay on superoxide (10 μM) is recorded as 6%; in the assay on superoxide (100 μM) it was 28%. For the same compound, in the assay with superoxide, the “inhibition of superoxide production” value was “not active”. Further, the IC50 in the assay with HCASMC worked out at 27 µM. Besides, the “% Change compared with vehicle” value in assay [2] is reported as −11%; in assay [3], “+4%”. Also, the figures for the “Change … (mean ± SD, ×0.01 mm)” value in assay [2] and in assay [3] were 14.4 ± 6.1 ×0.01 mm and 22.7 ± 4.7 ×0.01 mm, respectively.

Turning to `Oc1ccc2c(c1)OCC(c1ccc(Br)cc1)=C2` [Cpd. 21, 4′-Bromo-7-hydroxyisoflav-3-ene], in the assay on TNFα, the “synthesis of TNFα” value was “inhibited”. In assay [1], the EC50 came to 43 µM. Moreover, the “Time taken to reach half-lysis” value in the assay on red blood cells came out at 140.8 min. Further, the “extracellular superoxide production, % change compared with vehicle control” value with superoxide (10 μM) was −10%; with superoxide (100 μM), −11%. Also, in the assay on superoxide, the “inhibition of superoxide production” value is reported as “trend towards inhibition”. Half-maximal inhibition in the assay on HCASMC (IC50) was put at 29 µM. The “% Change compared with vehicle” value in assay [2] is listed as −11%; in assay [3] it was “+24%”. Further, the entries for the “Change … (mean ± SD, ×0.01 mm)” value in assay [2] and in assay [3] were 14.4 ± 5.1 ×0.01 mm and 27.2 ± 8.6 ×0.01 mm, respectively.

The record behind these values is patent US20090233999A1, “COMPOSITIONS AND THERAPEUTIC METHODS INVOLVING ISOFLAVONES AND ANALOGUES THEREOF” (NOVOGEN RESEARCH PTY LTD, priority 1999, published 2009).
